Columns and labels:
[1] = tested on: types of fish common in aquariums (acute toxicity of ammonia); experiment: Behavior of aquarium fish in water with 1000 μmol/l of total ammonia, with and without preparation; format: in vivo; conditions: for reduction of the acute toxicity of ammonia in water animals, in particular ornamental fish: in vivo
Excerpt: In aquariums holding 50 liters, the aquarium water was set to the following values:
Metered addition of a NH4Cl solution set to pH 8.2 predetermined a total ammonia concentration of 1000 μmol/l.
The aquariums were stocked with types of fish common in aquariums: • Xiphosphorus maculatus • Brachydanio rerio • Paracheirodon innesi • Rasbora heteromorpha • Colisa lalia • Papiliochromis ramirezi • Melanochromis splendida • Megalamphodus sweglesi • Corydoras spec
Only about 30% of the test fish behaved normal. […] The behavioral pattern observed persisted over 48-72 h, i.e. 2-3 days.
In the following tables, the average values of the behavior of all types of fish are represented averaged depending on the time and dose of glyoxal.2NaHSO3: (Comparison: control with 1000 μmol/l of total ammonia without treatment)

[2] = Chemical changes in the keeping water (pH, carbonate hardness); format: physicochemical
Excerpt: The positive effect may originate from the preparation itself, wherein, for example glyoxal.2NaHSO3 acts as a protecting agent in the gill area. The second possibility is an indirect effect by influencing the water chemistry, which again results in a shift of the NH3/NH4^+ equilibrium. Glyoxal-2NaHSO3 causes two different chemical changes in the keeping water:
1. pH reduction by up to 0.5 units, which persists considerably longer than with state of the art preparations and products, for example a reduction by 0.3 pH units up to 72 hours following the dose.
2. […] This surprising chemical behavior, too, is not found with state of the art products or preparations.

[3] = tested on: fish and other water organisms; experiment: Compatibility of the adduct alone; format: in vivo
Procedure: The adduct alone is very well compatible for fish and other water organisms up to high concentrations of 140 mg/l.

[4] = Stability of liquid product formulations; format: physicochemical; conditions: extended pH range between pH 3 and 9
[5] = NH3 concentration ranges common in keeping water; cited from earlier work

## O=S(=O)([O-])C(O)CCCC(O)S(=O)(=O)[O-].[Na+].[Na+] (centres unmarked) [NaHSO3 bisadduct of glutardialdehyde]
[1]
  reduction of the acute toxicity of ammonia in water animals, in particular ornamental fish: especially effective

## O=S(=O)([O-])C(O)CC(O)S(=O)(=O)[O-].[Na+].[Na+] (centres unmarked) [NaHSO3 bisadduct of malondialdehyde]
[1]
  reduction of the acute toxicity of ammonia in water animals, in particular ornamental fish: show the desired reduction of the acute toxicity of ammonia

## O=S(=O)([O-])C(O)CCC(O)S(=O)(=O)[O-].[Na+].[Na+] (centres unmarked) [NaHSO3 bisadduct of succindialdehyde]
[1]
  reduction of the acute toxicity of ammonia in water animals, in particular ornamental fish: show the desired reduction of the acute toxicity of ammonia

## O=S(=O)([O-])C(O)CO.[Na+] (centres unmarked) [NaHSO3 monoadduct of glycolaldehyde]
[1]
  reduction of the acute toxicity of ammonia in water animals, in particular ornamental fish: show the desired reduction of the acute toxicity of ammonia

## O=S(=O)([O-])C(O)C(O)S(=O)(=O)[O-].[Na+].[Na+] (centres unmarked) [glyoxal•2NaHSO3, NaHSO3 bisadduct of glyoxal]
[1]; 1000 μmol/l of total ammonia, only about 30% normal without preparation
  behavior of the test fish following addition of the preparation: the majority of the test fish behaved normal and showed no signs of damage by ammonia
[1]; Table A, 35 mg/l single dose, 0 hrs (before dose), 1000 μmol/l total ammonia
  Normal behavior show % of the test fish: 89%
[1]; Table A, 35 mg/l single dose, 2 hrs
  Normal behavior show % of the test fish: 67%
[1]; Table A, 35 mg/l single dose, 5 hrs
  Normal behavior show % of the test fish: 67%
[1]; Table A, 35 mg/l single dose, 9 hrs
  Normal behavior show % of the test fish: 67%
[1]; Table A, 35 mg/l single dose, 23 hrs
  Normal behavior show % of the test fish: 56%
[1]; Table A, 35 mg/l single dose, 29 hrs
  Normal behavior show % of the test fish: 67%
[1]; Table A, 35 mg/l single dose, 46 hrs
  Normal behavior show % of the test fish: 67%
[1]; Table A, 35 mg/l single dose, 54 hrs
  Normal behavior show % of the test fish: 56%
[1]; Table A, 35 mg/l single dose, 72 hrs
  Normal behavior show % of the test fish: 44%
[1]; Table B, 130 mg/l single dose, 0 hrs (before dose), 1000 μmol/l total ammonia
  Normal behavior show % of the test fish: 100%
[1]; Table B, 130 mg/l single dose, 2 hrs
  Normal behavior show % of the test fish: 78%
[1]; Table B, 130 mg/l single dose, 4 hrs
  Normal behavior show % of the test fish: 78%
[1]; Table B, 130 mg/l single dose, 8 hrs
  Normal behavior show % of the test fish: 78%
[1]; Table B, 130 mg/l single dose, 24 hrs
  Normal behavior show % of the test fish: 78%
[1]; Table B, 130 mg/l single dose, 48 hrs
  Normal behavior show % of the test fish: 100%
[1]; Table C, three-time dose 35 mg/l every 72 hours, 0 hrs (before doses)
  Normal behavior show % of the test fish: 100%
[1]; Table C, three-time dose 35 mg/l every 72 hours, 2 hrs
  Normal behavior show % of the test fish: 78%
[1]; Table C, three-time dose 35 mg/l every 72 hours, 4 hrs
  Normal behavior show % of the test fish: 78%
[1]; Table C, three-time dose 35 mg/l every 72 hours, 5 hrs
  Normal behavior show % of the test fish: 78%
[1]; Table C, three-time dose 35 mg/l every 72 hours, 24 hrs
  Normal behavior show % of the test fish: 67%
[1]; Table C, three-time dose 35 mg/l every 72 hours, 72 hrs (before 2nd dose)
  Normal behavior show % of the test fish: 78%
[1]; Table C, three-time dose 35 mg/l every 72 hours, 74 hrs
  Normal behavior show % of the test fish: 67%
[1]; Table C, three-time dose 35 mg/l every 72 hours, 96 hrs
  Normal behavior show % of the test fish: 89%
[1]; Table C, three-time dose 35 mg/l every 72 hours, 5 days after the 3rd dose (i.e. 11 days)
  Normal behavior show % of the test fish: 89%
[1]; Table C, three-time dose 35 mg/l every 72 hours, 120 hrs
  Normal behavior show % of the test fish: 89%
[1]; Table C, three-time dose 35 mg/l every 72 hours, 144 hrs (before 3rd dose)
  Normal behavior show % of the test fish: 89%
[1]; Table C, three-time dose 35 mg/l every 72 hours, 145 hrs
  Normal behavior show % of the test fish: 100%
[1]; Table C, three-time dose 35 mg/l every 72 hours, 168 hrs
  Normal behavior show % of the test fish: 89%
[1]; Table C, three-time dose 35 mg/l every 72 hours, 192 hrs
  Normal behavior show % of the test fish: 100%
[1]; Table D comparison, glyoxal•2NaHSO3 35 mg/l, product doses not given, 0 hrs (before dose)
  Normal behavior show % of the test fish: 89%
[1]; Table D comparison, glyoxal•2NaHSO3 35 mg/l, product doses not given, 2 hrs
  Normal behavior show % of the test fish: 67%
[1]; Table D comparison, glyoxal•2NaHSO3 35 mg/l, product doses not given, 5 hrs
  Normal behavior show % of the test fish: 67%
[1]; Table D comparison, glyoxal•2NaHSO3 35 mg/l, product doses not given, 8.5 hrs
  Normal behavior show % of the test fish: 67%
[1]; Table D comparison, glyoxal•2NaHSO3 35 mg/l, product doses not given, 22.5 hrs
  Normal behavior show % of the test fish: 56%
[1]; Table D comparison, glyoxal•2NaHSO3 35 mg/l, product doses not given, 29 hrs
  Normal behavior show % of the test fish: 67%
[1]; Table D comparison, glyoxal•2NaHSO3 35 mg/l, product doses not given, 46 hrs
  Normal behavior show % of the test fish: 67%
[1]; Table D comparison, glyoxal•2NaHSO3 35 mg/l, product doses not given, 54 hrs
  Normal behavior show % of the test fish: 56%
[1]; Table D comparison, glyoxal•2NaHSO3 35 mg/l, product doses not given, 72 hrs
  Normal behavior show % of the test fish: 44%
[1]; during the first 48 hours, 35 mg/l and 130 mg/l
  percentage of test fish with normal behavior versus control without treatment: significantly higher percentage of the test fish shows normal behavior than in the control test
[1]
  reduction of the acute toxicity of ammonia in water animals, in particular ornamental fish: especially effective
[1]; on addition of 5-140 mg/l, preferably 10-50 mg/l
  acute toxicity of ammonia to fish: clearly reduced
[1]; single dose, 1000 μmol/l of total ammonia
  time over which the behavioral pattern observed persisted: 48 to 72 h
[2]
  time after which the carbonate hardness reduction sets in: about 24 hours
  time the carbonate hardness reduction lasts: up to 72 hours
[2]; keeping water
  Reduction of the carbonate hardness: 0.5-0.60 dH
[2]; maximum
  pH reduction in the keeping water: up to 0.5 units
[2]; up to 72 hours following the dose
  pH reduction in the keeping water: 0.3 pH units
[3]
  concentration up to which the adduct alone is very well compatible for fish and other water organisms: ≤ 140 mg/L
[4]
  stability of the liquid product formulations: good stability

## O=S(=O)([O-])CO.[Na+] [sodium hydroxymethanesulfonate]
[5]
  reduction in the ammonia concentration: Neither a reduction in the ammonia concentration
  reduction of the NH3 toxicity: nor a, however disposed, reduction of the NH3 toxicity could be observed
